In US10577363B2, “Substituted piperidine compounds” (EPIZYME, INC., priority 2014, dated 2020):

target: SMYD3 (Homo sapiens (Human), UniProt Q9H7B4); test: SMYD3 biochemical assay (SPA, 3H-SAM methylation of MEKK2 protein substrate); conditions: read-out: SMYD3 Biochem IC50 (μM)*
In short: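 Native full-length human SMYD3 (E. coli-expressed, tags removed) was preincubated with compound for 30 min at room temperature in 25 mM Tris-Cl pH 8.0, 1 mM TCEP, 0.005% BSG, 0.005% Tween 20. Reaction was started with 3H-SAM plus GST-MEKK2, quenched with 100 uM unlabeled SAM, and read by SPA scintillation counting.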

| Compound | IC50 |
| --- | --- |
| CC(C)(C)C1CC(NC(=O)c2cc(C3CC3)on2)CCN1C(=O)CCCN (centres unmarked) [compound 219, N-(1-(4-aminobutanoyl)-2-(tert-butyl)piperidin-4-yl)-5-cyclopropylisoxazole-3-carboxamide] | 6.32 µM |
| NCCCC(=O)N1CC[C@@H](NC(=O)c2cc(C3CC3)on2)[C@H](c2ccccc2)C1 [compound 220, N-((3R,4R)-1-(4-aminobutanoyl)-3-phenylpiperidin-4-yl)-5-cyclopropylisoxazole-3-carboxamide] | 2.52 µM |
| NCCCC(=O)N1CC[C@H](NC(=O)c2cc(C3CC3)on2)[C@H](c2ccccc2)C1 [compound 221, N-((3R,4S)-1-(4-aminobutanoyl)-3-phenylpiperidin-4-yl)-5-cyclopropylisoxazole-3-carboxamide] | > 10 µM |
| C[C@H]1CC(NC(=O)c2cc(C3CC3)on2)CCN1C(=O)C12C3C4C1C1C2C3C41N (stereo partly drawn) [compound 222, N-((2S)-1-(4-aminocubane-1-carbonyl)-2-methylpiperidin-4-yl)-5-cyclopropylisoxazole-3-carboxamide] | 4.64 µM |
| C[C@H]1CC(NC(=O)c2cc(C3CC3)on2)CCN1C(=O)CC1(O)CCNCC1 (stereo partly drawn) [compound 223, 5-cyclopropyl-N-((2S)-1-(2-(4-hydroxypiperidin-4-yl)acetyl)-2-methylpiperidin-4-yl)isoxazole-3-carboxamide] | 7.19 µM |
| C[C@@H]1CC(NC(=O)c2cc(C3CC3)on2)CCN1C(=O)C1(C)CCNCC1 (stereo partly drawn) [compound 224, 5-cyclopropyl-N-((2R)-2-methyl-1-(4-methylpiperidine-4-carbonyl)piperidin-4-yl)isoxazole-3-carboxamide] | 1.42 µM |
| C[C@@H]1C[C@@H](NC(=O)c2cc(C3CC3)on2)CCN1C(=O)CC(O)CN (stereo partly drawn) [compound 225, N-((2R,4S)-1-(4-amino-3-hydroxybutanoyl)-2-methylpiperidin-4-yl)-5-cyclopropylisoxazole-3-carboxamide] | 9.05 µM |
| C[C@H]1CC(NC(=O)c2cc(C3CC3)on2)CCN1C(=O)CC1CCCC(N)C1 (stereo partly drawn) [compound 226, N-((2S)-1-(2-(3-aminocyclohexyl)acetyl)-2-methylpiperidin-4-yl)-5-cyclopropylisoxazole-3-carboxamide] | 2.38 µM |
| C[C@H]1C[C@@H](NC(=O)c2cc(C3CC3)on2)CCN1C(=O)CCCCN [compound 228, N-((2S,4S)-1-(5-aminopentanoyl)-2-methylpiperidin-4-yl)-5-cyclopropylisoxazole-3-carboxamide] | 1.28 µM |
| CCOC(=O)CS(=O)(=O)N1CC[C@H](NC(=O)c2cc(C3CC3)on2)C[C@@H]1C [compound 231, ethyl 2-(((2S,4S)-4-(5-cyclopropylisoxazole-3-carboxamido)-2-methylpiperidin-1-yl)sulfonyl)acetate] | 1.17 µM |
| C[C@H]1C[C@@H](NC(=O)c2cc(C3CC3)on2)CCN1S(=O)(=O)c1cn(C)cn1 [compound 234, 5-cyclopropyl-N-((2S,4S)-2-methyl-1-((1-methyl-1H-imidazol-4-yl)sulfonyl)piperidin-4-yl)isoxazole-3-carboxamide] | 1.24 µM |
| C[C@H]1C[C@@H](NC(=O)c2cc(C3CC3)on2)CCN1S(=O)(=O)CCC(F)(F)F [compound 236, 5-cyclopropyl-N-((2S,4S)-2-methyl-1-((3,3,3-trifluoropropyl)sulfonyl)piperidin-4-yl)isoxazole-3-carboxamide] | 1.04 µM |
| CC(C)OCCS(=O)(=O)N1CC[C@H](NC(=O)c2cc(C3CC3)on2)C[C@@H]1C [compound 237, 5-cyclopropyl-N-((2S,4S)-1-((2-isopropoxyethyl)sulfonyl)-2-methylpiperidin-4-yl)isoxazole-3-carboxamide] | 3.46 µM |
| CC(C)CS(=O)(=O)N1CC[C@H](NC(=O)c2cc(C3CC3)on2)C[C@H]1C [compound 239, 5-cyclopropyl-N-((2R,4S)-1-(isobutylsulfonyl)-2-methylpiperidin-4-yl)isoxazole-3-carboxamide] | > 10 µM |
| C[C@@H]1C[C@@H](NC(=O)c2cc(C3CC3)on2)CCN1S(=O)(=O)c1ccc(Cl)nc1 [compound 241, N-((2R,4S)-1-((6-chloropyridin-3-yl)sulfonyl)-2-methylpiperidin-4-yl)-5-cyclopropylisoxazole-3-carboxamide] | > 10 µM |
| CCOC(=O)CS(=O)(=O)N1CC[C@@H](NC(=O)c2cc(C3CC3)on2)C[C@@H]1C [compound 245, ethyl 2-(((2S,4R)-4-(5-cyclopropylisoxazole-3-carboxamido)-2-methylpiperidin-1-yl)sulfonyl)acetate] | > 10 µM |
| CC(C)CS(=O)(=O)N1CC[C@@H](NC(=O)c2cc(C3CC3)on2)C[C@H]1C [compound 250, 5-cyclopropyl-N-((2R,4R)-1-(isobutylsulfonyl)-2-methylpiperidin-4-yl)isoxazole-3-carboxamide] | 9.45 µM |
| CCOC(=O)CS(=O)(=O)N1CC[C@@H](NC(=O)c2cc(C3CC3)on2)C[C@H]1C [compound 252, ethyl 2-(((2R,4R)-4-(5-cyclopropylisoxazole-3-carboxamido)-2-methylpiperidin-1-yl)sulfonyl)acetate] | > 10 µM |
| C[C@@H]1C[C@H](NC(=O)c2cc(C3CC3)on2)CCN1S(=O)(=O)c1ccc(Cl)nc1 [compound 253, N-((2R,4R)-1-((6-chloropyridin-3-yl)sulfonyl)-2-methylpiperidin-4-yl)-5-cyclopropylisoxazole-3-carboxamide] | > 10 µM |
| COC(=O)CCS(=O)(=O)N1CC[C@@H](NC(=O)c2cc(C3CC3)on2)C[C@H]1C [compound 256, methyl 3-(((2R,4R)-4-(5-cyclopropylisoxazole-3-carboxamido)-2-methylpiperidin-1-yl)sulfonyl)propanoate] | > 10 µM |

Continued, values first:

| IC50 | Compound |
| --- | --- |
| 0.863 µM | CCCS(=O)(=O)N1CC[C@H](NC(=O)c2cc(C3CC3)on2)C[C@@H]1C [compound 229, 5-cyclopropyl-N-((2S,4S)-2-methyl-1-(propylsulfonyl)piperidin-4-yl)isoxazole-3-carboxamide] |
| 0.472 µM | CC(C)CS(=O)(=O)N1CC[C@H](NC(=O)c2cc(C3CC3)on2)C[C@@H]1C [compound 230, 5-cyclopropyl-N-((2S,4S)-1-(isobutylsulfonyl)-2-methylpiperidin-4-yl)isoxazole-3-carboxamide] |
| 3.26 µM | C[C@H]1C[C@@H](NC(=O)c2cc(C3CC3)on2)CCN1S(=O)(=O)CC(F)(F)F [compound 232, 5-cyclopropyl-N-((2S,4S)-2-methyl-1-((2,2,2-trifluoroethyl)sulfonyl)piperidin-4-yl)isoxazole-3-carboxamide] |
| 2.36 µM | COCCS(=O)(=O)N1CC[C@H](NC(=O)c2cc(C3CC3)on2)C[C@@H]1C [compound 233, 5-cyclopropyl-N-((2S,4S)-1-((2-methoxyethyl)sulfonyl)-2-methylpiperidin-4-yl)isoxazole-3-carboxamide] |
| > 10 µM | CCCS(=O)(=O)N1CC[C@H](NC(=O)c2cc(C3CC3)on2)C[C@H]1C [compound 238, 5-cyclopropyl-N-((2R,4S)-2-methyl-1-(propylsulfonyl)piperidin-4-yl)isoxazole-3-carboxamide] |
| > 10 µM | CCCCS(=O)(=O)N1CC[C@H](NC(=O)c2cc(C3CC3)on2)C[C@H]1C [compound 240, N-((2R,4S)-1-(butylsulfonyl)-2-methylpiperidin-4-yl)-5-cyclopropylisoxazole-3-carboxamide] |
| > 10 µM | C[C@@H]1C[C@@H](NC(=O)c2cc(C3CC3)on2)CCN1S(=O)(=O)N1CCCC1 [compound 242, 5-cyclopropyl-N-((2R,4S)-2-methyl-1-(pyrrolidin-1-ylsulfonyl)piperidin-4-yl)isoxazole-3-carboxamide] |
| 1.76 µM | C[C@@H]1C[C@@H](NC(=O)c2cc(C3CC3)on2)CCN1S(=O)(=O)N1CCN(C)CC1 [compound 243, 5-cyclopropyl-N-((2R,4S)-2-methyl-1-((4-methylpiperazin-1-yl)sulfonyl)piperidin-4-yl)isoxazole-3-carboxamide] |
| > 10 µM | C[C@H]1C[C@H](NC(=O)c2cc(C3CC3)on2)CCN1S(=O)(=O)CC(F)(F)F [compound 246, 5-cyclopropyl-N-((2S,4R)-2-methyl-1-((2,2,2-trifluoroethyl)sulfonyl)piperidin-4-yl)isoxazole-3-carboxamide] |
| > 10 µM | C[C@H]1C[C@H](NC(=O)c2cc(C3CC3)on2)CCN1S(=O)(=O)C1CC1 [compound 247, 5-cyclopropyl-N-((2S,4R)-1-(cyclopropylsulfonyl)-2-methylpiperidin-4-yl)isoxazole-3-carboxamide] |
| > 10 µM | COCCS(=O)(=O)N1CC[C@@H](NC(=O)c2cc(C3CC3)on2)C[C@@H]1C [compound 248, 5-cyclopropyl-N-((2S,4R)-1-((2-methoxyethyl)sulfonyl)-2-methylpiperidin-4-yl)isoxazole-3-carboxamide] |
| > 10 µM | CCCS(=O)(=O)N1CC[C@@H](NC(=O)c2cc(C3CC3)on2)C[C@H]1C [compound 249, 5-cyclopropyl-N-((2R,4R)-2-methyl-1-(propylsulfonyl)piperidin-4-yl)isoxazole-3-carboxamide] |
| 6.15 µM | CCCCS(=O)(=O)N1CC[C@@H](NC(=O)c2cc(C3CC3)on2)C[C@H]1C [compound 251, N-((2R,4R)-1-(butylsulfonyl)-2-methylpiperidin-4-yl)-5-cyclopropylisoxazole-3-carboxamide] |
| 4.14 µM | C[C@@H]1C[C@H](NC(=O)c2cc(C3CC3)on2)CCN1S(=O)(=O)N1CCCC1 [compound 254, 5-cyclopropyl-N-((2R,4R)-2-methyl-1-(pyrrolidin-1-ylsulfonyl)piperidin-4-yl)isoxazole-3-carboxamide] |
| 1.2 µM | C[C@@H]1C[C@H](NC(=O)c2cc(C3CC3)on2)CCN1S(=O)(=O)N1CCN(C)CC1 [compound 255, 5-cyclopropyl-N-((2R,4R)-2-methyl-1-((4-methylpiperazin-1-yl)sulfonyl)piperidin-4-yl)isoxazole-3-carboxamide] |
